pIC50: −log10 of the molar value. Structures can show the parent of a compound that is named as a salt.
Biological target: PRMT5-MEP50 enzyme complex (Homo sapiens (Human), UniProt O14744)
Experiment: PRMT5 enzyme activity in vitro assay (methylation of histone H4R3, ELISA absorbance at 450 nm)
Type: biochemical
Conditions: SAM, histone H4 peptide, room temperature 2 hours, 8 points from 10 μM to 0.128 nM
Method: Method for Measuring Enzyme Activity
In vitro assay: PRMT5-MEP50 enzyme complex, cofactor S-adenosylmethionine (SAM) and histone H4 peptide were reacted in vitro, and methylation of arginine (H4R3)—which is the third amino acid of histone H4—was measured in order to measure the enzyme activity of PRMT5.
Reagents: PRMT5-MEP50 enzyme complex (Catalog No. 51045), blocking buffer (52100-B), histone methyltransferase reaction buffer 2 (4×HMT assay buffer 2, Catalog No. 52170), and primary antibody (primary antibody 4-3, Catalog No. 52150) were purchased from BPS Bioscience (USA). The histone H4 peptide (1-20 amino acids) was custom made by Komabiotech (Korea) and used. S-adenosylmethionine was purchased from NEB (New England Biolabs, USA, Catalog No. B9003S). Plates for coating histone H4 peptide, washing buffer and color development reagent were purchased from the following vendors: Plate (Immobilizer™-Amino Plate, NUNC, Denmark, Catalog No. 436023), carbonate-bicarbonate buffer (Sigma-Aldrich, USA, Catalog No. C3041), washing buffer (10×TBST, Biosesang, Korea, Catalog No. T2005), TMB ELISA substrate (Abcam, UK, Catalog No. ab210902), horseradish peroxidase (HRP)-conjugated antibody (Abcam, UK, Catalog No. ab6721).
Experimental procedure: The histone H4 peptide was diluted with carbonate-bicarbonate buffer and prepared to 100 μg/mL, and then dispensed onto the plate per 100 μL and reacted at 37° C. for 1 hour. PRMT5-MEP50 enzyme complex and S-adenosylmethionine were diluted with histone methyltransferase reaction buffer to prepare 5 μg/mL and 2 μM, respectively, and then 20 μL of PRMT5-MEP50 enzyme complex and 25 μL of S-adenosylmethionine were dispensed onto the plate prepared above. 5 μL of the compound diluted with 10% dimethyl sulfoxide solution was added thereto and reacted at room temperature for 2 hours (final volume=50 μL). The concentration of the compound was diluted 1:5 from 10 μM until the lowest concentration of 0.128 nM, and 8 points were used for the test. After preparing the primary antibody by diluting 1:2000 with blocking buffer, 100 μL was added to the plate and reacted at room temperature for 1 hour. After preparing horseradish peroxidase-conjugated antibody by diluting 1:10,000 with blocking buffer, 100 μL was added to the plate and reacted at room temperature for 1 hour. 100 μL of TMB substrate was added and reacted for 3 minutes at room temperature, and 100 μL of 1 N sulfuric acid was then added to terminate the reaction. Then, the absorbance at 450 nm was measured to calculate the IC50 value of the compound. (+++: 1 to 100 nM, ++: greater than 100 to 1,000 nM, +: greater than 1,000 to 10,000 nM)

PRMT5-MEP50 enzyme complex, sequence (O14744 2-637): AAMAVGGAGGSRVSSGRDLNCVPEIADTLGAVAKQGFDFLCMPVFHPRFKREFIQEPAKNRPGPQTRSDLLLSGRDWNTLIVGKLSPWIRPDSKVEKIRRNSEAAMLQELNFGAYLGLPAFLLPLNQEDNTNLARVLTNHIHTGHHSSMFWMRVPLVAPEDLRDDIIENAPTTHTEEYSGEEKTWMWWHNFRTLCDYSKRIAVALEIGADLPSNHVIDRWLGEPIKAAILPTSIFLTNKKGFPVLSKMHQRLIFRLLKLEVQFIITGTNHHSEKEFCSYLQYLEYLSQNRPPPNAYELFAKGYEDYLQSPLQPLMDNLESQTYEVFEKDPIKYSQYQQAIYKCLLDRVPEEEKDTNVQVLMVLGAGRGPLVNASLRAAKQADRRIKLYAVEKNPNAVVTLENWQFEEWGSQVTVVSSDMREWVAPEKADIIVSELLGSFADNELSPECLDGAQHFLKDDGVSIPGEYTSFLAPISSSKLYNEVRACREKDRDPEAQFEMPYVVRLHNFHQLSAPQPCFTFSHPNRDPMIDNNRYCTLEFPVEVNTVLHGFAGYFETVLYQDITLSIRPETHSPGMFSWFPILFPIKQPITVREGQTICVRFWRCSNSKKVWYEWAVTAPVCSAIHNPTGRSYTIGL
PRMT5-MEP50 enzyme complex, sequence (Q9BQA1 2-342 partner): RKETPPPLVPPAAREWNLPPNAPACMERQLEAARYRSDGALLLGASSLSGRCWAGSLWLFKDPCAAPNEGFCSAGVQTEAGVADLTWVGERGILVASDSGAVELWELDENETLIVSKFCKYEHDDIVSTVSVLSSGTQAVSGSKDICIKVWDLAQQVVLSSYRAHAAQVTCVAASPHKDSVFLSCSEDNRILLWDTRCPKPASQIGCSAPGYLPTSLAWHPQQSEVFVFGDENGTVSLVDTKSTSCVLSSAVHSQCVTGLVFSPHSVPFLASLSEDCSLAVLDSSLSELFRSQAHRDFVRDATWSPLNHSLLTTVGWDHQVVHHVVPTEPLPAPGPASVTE

SMILES | pIC50
CN1CCC(COc2ccc3c(c2)OCCN(C[C@H](O)CN2CCc4ccccc4C2)C3=O)CC1 [Example 102, 4-[(2R)-3-(3,4-dihydro-1H-isoquinolin-2-yl)-2-hydroxy-propyl]-8-[(1-methyl-4-piperidyl)methoxy]-2,3-dihydro-1,4-benzoxazepin-5-one] | 6.00 to 7.00
O=C1c2ccc(C#Cc3ccncc3)cc2OCCN1C[C@H](O)CN1CCc2ccccc2C1 [Example 226, 4-[(2R)-3-(3,4-dihydro-1H-isoquinolin-2-yl)-2-hydroxy-propyl]-8-[2-(4-pyridyl)ethynyl]-2,3-dihydro-1,4-benzoxazepin-5-one] | 7.00 to 9.00
CCN1CC[C@@H](Oc2ccc3c(c2)OCCN(C[C@H](O)CN2CCc4ccccc4C2)C3=O)C1 [Example 99, 4-[(2R)-3-(3,4-dihydro-1H-isoquinolin-2-yl)-2-hydroxy-propyl]-8-[(3R)-1-ethylpyrrolidin-3-yl]oxy-2,3-dihydro-1,4-benzoxazepin-5-one] | 6.00 to 7.00
COC1CN(Cc2ccc3c(c2)OCCN(C[C@H](O)CN2CCc4ccccc4C2)C3=O)C1 [Example 29, 4-[(2R)-3-(3,4-dihydro-1H-isoquinolin-2-yl)-2-hydroxy-propyl]-8-[(3-methoxyazetidin-1-yl)methyl]-2,3-dihydro-1,4-benzoxazepin-5-one] | 6.00 to 7.00
CC1(C)CN(C[C@H](O)CN2CCc3ccccc3C2)C(=O)c2ccc(OC3CCN(CCO)CC3)nc2O1 [Example 234, 4-[(2R)-3-(3,4-dihydro-1H-isoquinolin-2-yl)-2-hydroxy-propyl]-8-[[1-(2-hydroxyethyl)-4-piperidyl]oxy]-2,2-dimethyl-3H-pyrido[3,2-f][1,4]oxazepin-5-one] | 7.00 to 9.00
CC1(C)CN(C[C@H](O)CN2CCc3ccccc3C2)C(=O)c2ccc(C(=O)N3C4CCC3COC4)cc2O1 [Example 203, 4-[(2R)-3-(3,4-dihydro-1H-isoquinolin-2-yl)-2-hydroxy-propyl]-2,2-dimethyl-8-(3-oxa-8-azabicyclo[3.2.1]octan-8-carbonyl)-3H-1,4-benzoxazepin-5-one] | 6.00 to 7.00
CC(C)Cc1ccc2c(c1)OCCN(C[C@H](O)CN1CCc3ccccc3C1)C2=O [Example 12, 4-[(2R)-3-(3,4-dihydro-1H-isoquinolin-2-yl)-2-hydroxy-propyl]-8-isobutyl-2,3-dihydro-1,4-benzoxazepin-5-one] | 7.00 to 9.00
CN1CCN(C[C@H](O)CN2CCc3ccccc3C2)C(=O)c2ccc(OC3CCN(C4CCC4)CC3)cc21 [Example 127, 8-[(1-cyclobutyl-4-piperidyl)oxy]-4-[(2R)-3-(3,4-dihydro-1H-isoquinolin-2-yl)-2-hydroxy-propyl]-1-methyl-2,3-dihydro-1,4-benzodiazepin-5-one] | 7.00 to 9.00
O=C1c2ccc(C#CCO)cc2OCCN1C[C@H](O)CN1CCc2ccccc2C1 [Example 223, 4-[(2R)-3-(3,4-dihydro-1H-isoquinolin-2-yl)-2-hydroxy-propyl]-8-(3-hydroxypro-1-pynyl)-2,3-dihydro-1,4-benzoxazepin-5-one] | 6.00 to 7.00
COC[C@@H]1CCCN1Cc1ccc2c(c1)OCCN(C[C@H](O)CN1CCc3ccccc3C1)C2=O [Example 49, 4-[(2R)-3-(3,4-dihydro-1H-isoquinolin-2-yl)-2-hydroxy-propyl]-8-[[(2S)-2-(methoxymethyl)pyrrolidin-1-yl]methyl]-2,3-dihydro-1,4-benzoxazepin-5-one] | 6.00 to 7.00
CC(O)CN1CCC(Oc2ccc3c(c2)OCCN(C[C@H](O)CN2CCc4ccccc4C2)C3=O)CC1 (stereo partly drawn) [Example 212, 4-[(2R)-3-(3,4-dihydro-1H-isoquinolin-2-yl)-2-hydroxy-propyl]-8-[[1-(2-hydroxypropyl)-4-piperidyl]oxy]-2,3-dihydro-1,4-benzoxazepin-5-one] | 6.00 to 7.00
CC(=O)N1CC(Oc2ccc3c(c2)OCCN(C[C@H](O)CN2CCc4ccccc4C2)C3=O)C1 [Example 83, 8-(1-acetylazetidin-3-yl)oxy-4-[(2R)-3-(3,4-dihydro-1H-isoquinolin-2-yl)-2-hydroxy-propyl]-2,3-dihydro-1,4-benzoxazepin-5-one] | 6.00 to 7.00
CCN1CC2(CC(Oc3ccc4c(c3)OCCN(C[C@H](O)CN3CCc5ccccc5C3)C4=O)C2)C1 [Example 172, 4-[(2R)-3-(3,4-dihydro-1H-isoquinolin-2-yl)-2-hydroxy-propyl]-8-[(2-ethyl-2-azaspiro[3.3]heptan-6-yl)oxy]-2,3-dihydro-1,4-benzoxazepin-5-one] | 6.00 to 7.00
O=C1c2ccc(OCC(F)(F)F)cc2OCCN1C[C@H](O)CN1CCc2ccccc2C1 [Example 71, 4-[(2R)-3-(3,4-dihydro-1H-isoquinolin-2-yl)-2-hydroxy-propyl]-8-(2,2,2-trifluoroethoxy)-2,3-dihydro-1,4-benzoxazepin-5-one] | 6.00 to 7.00
O=C1c2ccc(Cl)cc2CCCN1C[C@H](O)CN1CCc2ccccc2C1 [Example 154, 7-chloro-2-[(2R)-3-(3,4-dihydro-1H-isoquinolin-2-yl)-2-hydroxy-propyl]-4,5-dihydro-3H-2-benzazepin-1-one] | 7.00 to 9.00
O=C1c2ccc(CN3CCCC(O)C3)cc2OCCN1C[C@H](O)CN1CCc2ccccc2C1 (stereo partly drawn) [Example 44, 4-[(2R)-3-(3,4-dihydro-1H-isoquinolin-2-yl)-2-hydroxy-propyl]-8-[(3-hydroxy-1-piperidyl)methyl]-2,3-dihydro-1,4-benzoxazepin-5-one] | 7.00 to 9.00
CN1CCC(Oc2ccc3c(c2)N(C)CCN(C[C@H](O)CN2CCc4ccccc4C2)C3=O)C1 (stereo partly drawn) [Example 132, 4-[(2R)-3-(3,4-dihydro-1H-isoquinolin-2-yl)-2-hydroxy-propyl]-1-methyl-8-(1-methylpyrrolidin-3-yl)oxy-2,3-dihydro-1,4-benzodiazepin-5-one] | 6.00 to 7.00
C[C@@H]1CN(C[C@H](O)CN2CCc3ccccc3C2)C(=O)c2ccc(OC3CCN(CCO)CC3)cc2O1 [Example 219, (2R)-4-[(2R)-3-(3,4-dihydro-1H-isoquinolin-2-yl)-2-hydroxy-propyl]-8-[[1-(2-hydroxyethyl)-4-piperidyl]oxy]-2-methyl-2,3-dihydro-1,4-benzoxazepin-5-one] | 7.00 to 9.00
CC(=O)N1CC=C(c2ccc3c(c2)OCCN(C[C@H](O)CN2CCc4ccccc4C2)C3=O)CC1 [Example 16, 8-(1-acetyl-3,6-dihydro-2H-pyridin-4-yl)-4-[(2R)-3-(3,4-dihydro-1H-isoquinolin-2-yl)-2-hydroxy-propyl]-2,3-dihydro-1,4-benzoxazepin-5-one] | 7.00 to 9.00
CN(C)CCOc1ccc2c(c1)OCCN(C[C@H](O)CN1CCc3ccccc3C1)C2=O [Example 72, 4-[(2R)-3-(3,4-dihydro-1H-isoquinolin-2-yl)-2-hydroxy-propyl]-8-[2-(dimethylamino)ethoxy]-2,3-dihydro-1,4-benzoxazepin-5-one] | 6.00 to 7.00
COC[C@H]1CCCN1Cc1ccc2c(c1)OCCN(C[C@H](O)CN1CCc3ccccc3C1)C2=O [Example 50, 4-[(2R)-3-(3,4-dihydro-1H-isoquinolin-2-yl)-2-hydroxy-propyl]-8-[[(2R)-2-(methoxymethyl)pyrrolidin-1-yl]methyl]-2,3-dihydro-1,4-benzoxazepin-5-one] | 7.00 to 9.00
CN1CCN(C[C@H](O)CN2CCc3ccccc3C2)C(=O)c2ccc(OCc3ccncc3F)cc21 [Example 134, 4-[(2R)-3-(3,4-dihydro-1H-isoquinolin-2-yl)-2-hydroxy-propyl]-8-[(3-fluoro-4-pyridyl)methoxy]-1-methyl-2,3-dihydro-1,4-benzodiazepin-5-one] | 7.00 to 9.00
O=C1c2ccc(CN3CCC[C@@H]3CO)cc2OCCN1C[C@H](O)CN1CCc2ccccc2C1 [Example 47, 4-[(2R)-3-(3,4-dihydro-1H-isoquinolin-2-yl)-2-hydroxy-propyl]-8-[[(2R)-2-(hydroxymethyl)pyrrolidin-1-yl]methyl]-2,3-dihydro-1,4-benzoxazepin-5-one] | 6.00 to 7.00
CC(O)CN1CC[C@@H](Oc2ccc3c(c2)OCCN(C[C@H](O)CN2CCc4ccccc4C2)C3=O)[C@H](F)C1 (stereo partly drawn) [Example 254, 4-[(2R)-3-(3,4-dihydro-1H-isoquinolin-2-yl)-2-hydroxy-propyl]-8-[[(3R,4R)-3-fluoro-1-(2-hydroxypropyl)-4-piperidyl]oxy]-2-methyl-2,3-dihydro-1,4-benzoxazepin-5-one divalnet hydrochloride] | 6.00 to 7.00

— US11111237B2, “Bicyclic compound and use thereof” (SK BIOPHARMACEUTICALS CO., LTD., priority 2019, dated 2021)
